According to patent US8114989B2, “Pyrazolylaminopyrimidine derivatives useful as tyrosine kinase inhibitors” (AstraZeneca AB, priority 2005, dated 2012):

Biological target: T1, human Trk A kinase (Homo sapiens, UniProt P04629)
T1 construct: HIS; made in house; host or cells: SF9 insect cells
Test: Trk A Assay (Alphascreen kinase assay)
Assay type: biochemical
Conditions: 70 μM ATP, PolyEY-biotin substrate, 20 minutes, room temperature, read-out: Trk inhibitory activity IC50
Method: After incubation of the kinase with a biotinylated substrate and adenosine triphosphate (ATP) for 20 minutes at room temperature, the kinase reaction was stopped by the addition of 30 mM ethylenediaminetetraacetic acid (EDTA). The reaction was performed in 384 well microtitre plates and the reaction products were detected with the addition of strepavidin coated Donor Beads and phosphotyrosine-specific antibodies coated Acceptor Beads using the EnVision Multilabel Plate Reader after an overnight incubation at room temperature.

T1 sequence (P04629 442-796): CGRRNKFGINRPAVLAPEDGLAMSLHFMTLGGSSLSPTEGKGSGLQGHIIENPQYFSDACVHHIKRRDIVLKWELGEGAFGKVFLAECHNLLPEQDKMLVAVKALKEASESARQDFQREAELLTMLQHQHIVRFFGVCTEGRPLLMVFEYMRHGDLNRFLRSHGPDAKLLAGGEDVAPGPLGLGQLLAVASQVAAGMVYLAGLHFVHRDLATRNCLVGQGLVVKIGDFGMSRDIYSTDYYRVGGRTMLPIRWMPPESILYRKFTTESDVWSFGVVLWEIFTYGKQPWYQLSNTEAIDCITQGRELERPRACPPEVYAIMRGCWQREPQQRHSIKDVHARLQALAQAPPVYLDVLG

IC50: 10 nM
Compound: C[C@H](Nc1ncc(F)c(Nc2cc(C3CC3)[nH]n2)n1)c1ccc(F)cn1 [Example 3, (S)-5-Fluoro-N^1-(5-cyclopropyl-1H-pyrazol-3-yl)-N^2-(1-(5-fluoropyridin-2-yl)ethyl)pyrimidine-2,4-diamine]
